{"source": "patent US20240246979A1", "about": "“cGAS INHIBITORS” (Eli Lilly and Company, priority 2022, published 2024)", "key": {"cGAS [1]": {"molecular_target": "T1, cGAS (Homo sapiens, UniProt Q8N884)", "T1 sequence (Q8N884 whole entry)": "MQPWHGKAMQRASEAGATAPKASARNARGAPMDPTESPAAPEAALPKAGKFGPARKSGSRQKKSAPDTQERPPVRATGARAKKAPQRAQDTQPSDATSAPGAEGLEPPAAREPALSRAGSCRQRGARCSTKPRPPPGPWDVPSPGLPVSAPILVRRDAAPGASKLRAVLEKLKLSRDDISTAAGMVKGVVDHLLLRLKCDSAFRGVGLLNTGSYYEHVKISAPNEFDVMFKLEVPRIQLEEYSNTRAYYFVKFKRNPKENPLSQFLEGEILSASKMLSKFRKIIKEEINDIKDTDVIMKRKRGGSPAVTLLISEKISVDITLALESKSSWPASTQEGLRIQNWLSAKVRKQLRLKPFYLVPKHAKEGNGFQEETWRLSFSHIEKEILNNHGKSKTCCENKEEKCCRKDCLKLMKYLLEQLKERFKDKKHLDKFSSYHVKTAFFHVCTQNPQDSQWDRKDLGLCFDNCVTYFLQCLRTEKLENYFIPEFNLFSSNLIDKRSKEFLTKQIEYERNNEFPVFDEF", "assay": "Cellular assay to measure cGAS activity (IFNb AlphaLISA in THP1 cells stimulated by RDG-Adenovirus-GFP)", "type": "cell-based", "set-up": "host or cells: THP1 cells differentiated with PMA and stimulated with RDG-Adenovirus-GFP", "details": "PMA-differentiated THP1 cells, RDG-Adenovirus-GFP at 1000 MOI; inhibition of IFNb production as marker for cGAS activity", "method_in_brief": "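PMA-differentiated THP1 cells were infected with RDG-Adenovirus-GFP at 1000 MOI for 4 h, then exposed overnight to test compounds. IFNb in the supernatant was quantified by AlphaLISA as a cGAS activity marker, and IC50 was fitted with a 4-parameter logistic equation.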"}, "cGAS [2]": {"molecular_target": "T1, cGAS", "assay": "In vitro inhibition assay of cGAS activity (cGAMP production, RapidFire mass spectrometry)", "type": "biochemical", "set-up": "Insert cDNA encoding full-length of human cGAS; His6; made in house; host or cells: E. coli BL21(DE3)", "details": "10 nM recombinant human cGAS, 60 nM 75-bp dsDNA, 50 μM ATP, 50 μM GTP, 3 hrs", "method_in_brief": "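His6-tagged full-length human cGAS (10 nM, E. coli-expressed) was incubated for 3 hrs at ambient temperature with 60 nM 75-bp dsDNA, 50 μM ATP and 50 μM GTP in Tris pH 7.5/MgCl2 buffer with compound dilutions. cGAMP was quantified by RapidFire mass spectrometry against an internal standard, and IC50 was obtained by 4-parameter logistic fit.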"}}}
{"smiles": "Cc1noc(-c2cc(Cl)c(Cl)c3[nH]c4c(c23)CC(=O)NCC4)n1", "note": "[Example 25, 7,8-Dichloro-10-(3-methyl-1,2,4-oxadiazol-5-yl)-3,4,5,6-tetrahydroazepino[4,5-b]indol-2(1H)-one]", "values": [{"measurement": "IC50", "setting": "cGAS [1]", "value": "> 10000", "unit": "nM"}, {"measurement": "IC50", "setting": "cGAS [2]", "value": 27.1, "unit": "nM"}]}
{"smiles": "O=C1Cc2c([nH]c3c(Cl)c(Cl)cc(-c4nc(CO)no4)c23)CCN1", "note": "[Example 26, 7,8-Dichloro-10-(3-(hydroxymethyl)-1,2,4-oxadiazol-5-yl)-3,4,5,6-tetrahydroazepino[4,5-b]indol-2(1H)-one]", "values": [{"measurement": "IC50", "setting": "cGAS [1]", "value": "> 10000", "unit": "nM"}, {"measurement": "IC50", "setting": "cGAS [2]", "value": 133, "unit": "nM"}]}
{"smiles": "O=C1Cc2c([nH]c3c(Cl)c(Cl)cc(-c4cnco4)c23)CCN1", "note": "[Example 27, 7,8-Dichloro-10-(oxazol-5-yl)-3,4,5,6-tetrahydroazepino[4,5-b]indol-2(1H)-one]", "values": [{"measurement": "IC50", "setting": "cGAS [1]", "value": "> 10000", "unit": "nM"}, {"measurement": "IC50", "setting": "cGAS [2]", "value": 110, "unit": "nM"}]}
{"smiles": "N#CCc1cc(Cl)c(Cl)c2[nH]c3c(c12)CC(=O)NCC3", "note": "[Example 28, 2-(7,8-Dichloro-2-oxo-1,2,3,4,5,6-hexahydroazepino[4,5-b]indol-10-yl)acetonitrile]", "values": [{"measurement": "IC50", "setting": "cGAS [1]", "value": 914, "unit": "nM"}, {"measurement": "IC50", "setting": "cGAS [2]", "value": 58.1, "unit": "nM"}]}
{"smiles": "O=C1Cc2c([nH]c3c(Cl)c(Cl)cc(-c4nnc[nH]4)c23)CCN1", "note": "[Example 29, 7,8-Dichloro-10-(4H-1,2,4-triazol-3-yl)-3,4,5,6-tetrahydroazepino[4,5-b]indol-2(1H)-one]", "values": [{"measurement": "IC50", "setting": "cGAS [1]", "value": "> 10000", "unit": "nM"}, {"measurement": "IC50", "setting": "cGAS [2]", "value": 122, "unit": "nM"}]}
{"smiles": "CCNc1cc(Cl)c(Cl)c2[nH]c3c(c12)CC(=O)NCC3", "note": "[Example 30, 7,8-Dichloro-10-(ethylamino)-3,4,5,6-tetrahydroazepino[4,5-b]indol-2(1H)-one]", "values": [{"measurement": "IC50", "setting": "cGAS [1]", "value": 3730, "unit": "nM"}, {"measurement": "IC50", "setting": "cGAS [2]", "value": 119, "unit": "nM"}]}
{"smiles": "CC1C(=O)NCCc2[nH]c3c(Cl)c(Cl)cc(CC#N)c3c21", "note": "(centres unmarked) [Example 31, 2-(7,8-Dichloro-1-methyl-2-oxo-1,2,3,4,5,6-hexahydroazepino[4,5-b]indol-10-yl)acetonitrile]", "values": [{"measurement": "IC50", "setting": "cGAS [1]", "value": 1120, "unit": "nM"}, {"measurement": "IC50", "setting": "cGAS [2]", "value": 39.5, "unit": "nM"}]}
{"smiles": "NC(=O)C(=O)Nc1cc(Cl)c(Cl)c2[nH]c3c(c12)CC(=O)NCC3", "note": "[Example 32, N^1-(7,8-Dichloro-2-oxo-1,2,3,4,5,6-hexahydroazepino[4,5-b]indol-10-yl)oxalamide]", "values": [{"measurement": "IC50", "setting": "cGAS [1]", "value": 1400, "unit": "nM"}, {"measurement": "IC50", "setting": "cGAS [2]", "value": 33.3, "unit": "nM"}]}
{"smiles": "Nc1noc(-c2cc(Cl)c(Cl)c3[nH]c4c(c23)CC(=O)NCC4)n1", "note": "[Example 33, 10-(3-Amino-1,2,4-oxadiazol-5-yl)-7,8-dichloro-3,4,5,6-tetrahydroazepino[4,5-b]indol-2(1H)-one]", "values": [{"measurement": "IC50", "setting": "cGAS [1]", "value": 1200, "unit": "nM"}, {"measurement": "IC50", "setting": "cGAS [2]", "value": 20.4, "unit": "nM"}]}
{"smiles": "Nc1cncc(-c2cc(Cl)c(Cl)c3[nH]c4c(c23)CC(=O)NCC4)n1", "note": "[Example 34, 10-(6-Aminopyrazin-2-yl)-7,8-dichloro-3,4,5,6-tetrahydroazepino[4,5-b]indol-2(1H)-one]", "values": [{"measurement": "IC50", "setting": "cGAS [1]", "value": 1730, "unit": "nM"}, {"measurement": "IC50", "setting": "cGAS [2]", "value": 39.5, "unit": "nM"}]}
{"smiles": "C[C@H]1C(=O)NCCc2[nH]c3c(Cl)c(Cl)cc(-c4cnn(C)n4)c3c21", "note": "[Example 38, (R)-7,8-Dichloro-1-methyl-10-(2-methyl-2H-1,2,3-triazol-4-yl)-3,4,5,6-tetrahydroazepino[4,5-b]indol-2(1H)-one Or (S′)-7,8-Dichloro-1-methyl-10-(2-methyl-2H-1,2,3-triazol-4-yl)-3,4,5,6-tetrahydroazepino[4,5-b]indol-2(1H)-one]", "values": [{"measurement": "IC50", "setting": "cGAS [1]", "value": 9800, "unit": "nM"}, {"measurement": "IC50", "setting": "cGAS [2]", "value": 1650, "unit": "nM"}]}
{"smiles": "COCC(=O)Nc1cc(Cl)c(Cl)c2[nH]c3c(c12)C(C)C(=O)NCC3", "note": "(centres unmarked) [Example 39, N-(7,8-Dichloro-1-methyl-2-oxo-1,2,3,4,5,6-hexahydroazepino[4,5-b]indol-10-yl)-2-methoxyacetamide]", "values": [{"measurement": "IC50", "setting": "cGAS [1]", "value": 892, "unit": "nM"}, {"measurement": "IC50", "setting": "cGAS [2]", "value": 54.4, "unit": "nM"}]}
{"smiles": "CC1C(=O)NCCc2[nH]c3c(Cl)c(Cl)cc(NC(=O)C4CCO4)c3c21", "note": "(centres unmarked) [Example 44, N-(7,8-Dichloro-1-methyl-2-oxo-1,2,3,4,5,6-hexahydroazepino[4,5-b]indol-10-yl)oxetane-2-carboxamide]", "values": [{"measurement": "IC50", "setting": "cGAS [1]", "value": 2790, "unit": "nM"}, {"measurement": "IC50", "setting": "cGAS [2]", "value": 38.9, "unit": "nM"}]}
{"smiles": "CCCNc1cc(Cl)c(Cl)c2[nH]c3c(c12)C(C)C(=O)NCC3", "note": "(centres unmarked) [Example 45, 7,8-Dichloro-1-methyl-10-(propylamino)-3,4,5,6-tetrahydroazepino[4,5-b]indol-2(1H)-one]", "values": [{"measurement": "IC50", "setting": "cGAS [1]", "value": 2230, "unit": "nM"}, {"measurement": "IC50", "setting": "cGAS [2]", "value": 46.6, "unit": "nM"}]}
{"smiles": "CC1C(=O)NCCc2[nH]c3c(Cl)c(Cl)cc(NCc4cocn4)c3c21", "note": "(centres unmarked) [Example 57, 7,8-Dichloro-1-methyl-10-((oxazol-4-ylmethyl)amino)-3,4,5,6-tetrahydroazepino[4,5-b]indol-2(1H)-one]", "values": [{"measurement": "IC50", "setting": "cGAS [1]", "value": 558, "unit": "nM"}, {"measurement": "IC50", "setting": "cGAS [2]", "value": 42.1, "unit": "nM"}]}
{"smiles": "Cc1conc1Nc1cc(Cl)c(Cl)c2[nH]c3c(c12)C(C)C(=O)NCC3", "note": "(centres unmarked) [Example 67, 7,8-Dichloro-1-methyl-10-((4-methylisoxazol-3-yl)amino)-3,4,5,6-tetrahydroazepino[4,5-b]indol-2(1H)-one]", "values": [{"measurement": "IC50", "setting": "cGAS [1]", "value": 1030, "unit": "nM"}, {"measurement": "IC50", "setting": "cGAS [2]", "value": 30.6, "unit": "nM"}]}
{"smiles": "CC1C(=O)NCCc2[nH]c3c(Cl)c(Cl)cc(NCC(F)F)c3c21", "note": "(centres unmarked) [Example 70, 7,8-Dichloro-10-((2,2-difluoroethyl)amino)-1-methyl-3,4,5,6-tetrahydroazepino[4,5-b]indol-2(1H)-one]", "values": [{"measurement": "IC50", "setting": "cGAS [1]", "value": 1290, "unit": "nM"}, {"measurement": "IC50", "setting": "cGAS [2]", "value": 30.5, "unit": "nM"}]}
{"smiles": "CC1C(=O)NCCc2[nH]c3c(Cl)c(Cl)cc(NCCC(F)F)c3c21", "note": "(centres unmarked) [Example 71, 7,8-Dichloro-10-((3,3-difluoropropyl)amino)-1-methyl-3,4,5,6-tetrahydroazepino[4,5-b]indol-2(1H)-one]", "values": [{"measurement": "IC50", "setting": "cGAS [1]", "value": 2320, "unit": "nM"}, {"measurement": "IC50", "setting": "cGAS [2]", "value": 43, "unit": "nM"}]}
{"smiles": "CC1C(=O)NCCc2[nH]c3c(Cl)c(Cl)cc(OCC(F)(F)CO)c3c21", "note": "(centres unmarked) [Example 72, 7,8-Dichloro-10-(2,2-difluoro-3-hydroxypropoxy)-1-methyl-3,4,5,6-tetrahydroazepino[4,5-b]indol-2(1H)-one]", "values": [{"measurement": "IC50", "setting": "cGAS [1]", "value": 662, "unit": "nM"}, {"measurement": "IC50", "setting": "cGAS [2]", "value": 23.3, "unit": "nM"}]}
{"smiles": "CC1C(=O)NCCc2[nH]c3c(Cl)c(Cl)cc(OCCF)c3c21", "note": "(centres unmarked) [Example 75, 7,8-Dichloro-10-(2-fluoroethoxy)-1-methyl-3,4,5,6-tetrahydroazepino[4,5-b]indol-2(1H)-one]", "values": [{"measurement": "IC50", "setting": "cGAS [1]", "value": 1150, "unit": "nM"}, {"measurement": "IC50", "setting": "cGAS [2]", "value": 19, "unit": "nM"}]}
{"smiles": "CC1C(=O)NCCc2c1c1c(OCCCO)cc(Cl)c(Cl)c1n2C", "note": "(centres unmarked) [Example 77, 7,8-Dichloro-10-(3-hydroxypropoxy)-1,6-dimethyl-3,4,5,6-tetrahydroazepino[4,5-b]indol-2(1H)-one]", "values": [{"measurement": "IC50", "setting": "cGAS [1]", "value": 843, "unit": "nM"}, {"measurement": "IC50", "setting": "cGAS [2]", "value": 14.1, "unit": "nM"}]}
{"smiles": "CC1C(=O)NCCc2c1c1c(OCC#N)cc(Cl)c(Cl)c1n2C", "note": "(centres unmarked) [Example 78, 2-((7,8-Dichloro-1,6-dimethyl-2-oxo-1,2,3,4,5,6-hexahydroazepino[4,5-b]indol-10-yl)oxy)acetonitrile]", "values": [{"measurement": "IC50", "setting": "cGAS [1]", "value": 810, "unit": "nM"}, {"measurement": "IC50", "setting": "cGAS [2]", "value": 46.5, "unit": "nM"}]}
{"smiles": "COCCOc1cc(Cl)c(Cl)c2[nH]c3c(c12)C(C)C(=O)NCC3", "note": "(centres unmarked) [Example 79, 7,8-Dichloro-10-(2-methoxyethoxy)-1-methyl-3,4,5,6-tetrahydroazepino[4,5-b]indol-2(1H)-one]", "values": [{"measurement": "IC50", "setting": "cGAS [1]", "value": 591, "unit": "nM"}, {"measurement": "IC50", "setting": "cGAS [2]", "value": 14.2, "unit": "nM"}]}
{"smiles": "CC(O)COc1cc(Cl)c(Cl)c2[nH]c3c(c12)CC(=O)NCC3", "note": "(centres unmarked) [Example 87, 7,8-Dichloro-10-(2-hydroxypropoxy)-3,4,5,6-tetrahydroazepino[4,5-b]indol-2(1H)-one]", "values": [{"measurement": "IC50", "setting": "cGAS [1]", "value": 5970, "unit": "nM"}, {"measurement": "IC50", "setting": "cGAS [2]", "value": 36, "unit": "nM"}]}
{"smiles": "CC1C(=O)NCCc2[nH]c3c(Cl)c(Cl)cc(CCCO)c3c21", "note": "(centres unmarked) [Example 88, 7,8-Dichloro-10-(3-hydroxypropyl)-1-methyl-3,4,5,6-tetrahydroazepino[4,5-b]indol-2(1H)-one]", "values": [{"measurement": "IC50", "setting": "cGAS [1]", "value": 3230, "unit": "nM"}, {"measurement": "IC50", "setting": "cGAS [2]", "value": 36.1, "unit": "nM"}]}
